Assay results reported in patent US20070060636A1, “High enantiomeric purity dexanabinol for pharmaceutical compositions” (priority 2002, published 2007).
Where a name gives a salt, the structure may show the parent alone. Read-outs that look alike come from different tables or passages of the source.

What was measured:
[1] = cited from earlier work
[2] = system: rats; settings: conscious rats; cited from earlier work
[3] = i.v.; cited from earlier work
[4] = system: rats; settings: 10 μg/kg i.v., cited from earlier work
[5] = threshold for psychomimetic effects in humans; type: in vivo; settings: worked out from THC threshold and 200 fold psychoactivity
Description: Psychoactive cannabinoids have a variety of pharmacological effects that are evoked through interactions with the CB1 receptors predominantly expressed in the brain. The central nervous system effects that occur after in vivo exposure to HU-210 include euphoria, hypokinesia, hypothermia, anti-nociception, and catalepsy. Hypokinesia, hypothermia, anti-nociception, and catalepsy are the activities that form the basis of the “Tetrad assay” of CB1 mediated activity. […] The threshold for psychomimetic effects of oral THC in humans is in the range of 10-15 mg THC in an adult, i.e from about 0.16 to about 0.25 mg THC/kg body weight for adults of approximately 60 kg (“Cannabis and Cannabinoids, pharmacology, toxicology and therapeutic potential” edited by Grotenhermen and Russo, the Haworth Integrative Healing Press; Chapter 31 pp 345 and 351).

[6] = system: rat model; settings: cited from earlier work
[7] = system: intra-ocular pressure (IOP); experiment: IOP lowering after topical administration in normotensive rabbits; type: in vivo, New Zealand White albino rabbits; settings: commercially available drugs, topical
Experimental: New Zealand White albino rabbits weighing 2-2.5 kg were acclimatized in our animal facility for at least a week prior to IOP measurements. Drug, saline and blank-vehicle groups (n=8-12 animals per group) were included. In most experiments, 50 μl drops were applied at 09:00 and measurements were taken 1 hour, 3, 5, and 7 hours later. Baseline IOP was individualized for each animal and time point prior to drug testing. IOP was measured by a Digilab Pneumatonometer, Model 30R. ΔIOP was calculated by subtracting the baseline IOP from IOP value measured after drug application at a corresponding time point. Maximal ΔIOP and area under the ΔIOP×hours curve (AUC) were calculated and averaged for each group. Data of IOP, AUC, blood pressure and toxicity were analyzed by the Wilcoxon-Rank test.

[8] = oral, adult; cited from earlier work

CCCCCCC(C)(C)c1cc(O)c2c(c1)OC(C)(C)[C@@H]1CC=C(CO)C[C@@H]21 [HU-210, 1,1-dimethylheptyl-(3R,4R)-7-hydroxy-Δ^6-tetrahydrocannabinol]
psychoactivity in animals relative to Δ^9-THC ([1]; in vivo): approximately 200 fold
psychoactivity compared with HU-211 ([1]; series of animal tests): a thousand times more psychoactive
psychoactivity compared with Δ^9-THC ([1]; series of animal tests): a hundred times more psychoactive
bradycardia still present after drug administration [2]: ≥ 8 h
duration of hypotensive effects [2]: 2 h
lowest administered dose at which hypotensive effect is detected [3]: 1 µg/kg
reduction of mean blood pressure [4]: 57±5 mm Hg
systemic vascular resistance index [4]: without significantly affecting
cardiac index after drug ([4]; from 37±1): 23±1 mL/min/100 g
maximal tolerated dose (theoretical) [5]: less than 1.25 μg/kg body weight
PaCO2 after drug ([6]; from 32±0.7): 45.7±1.6 mmHg
mean arterial blood pressure after drug ([6]; from 142±1): 105±6 mm Hg
heart rate after drug ([6]; from 484±6): 232±18 beats/min
change in cerebral glucose use ([6]; frontal cortex): −19%
cerebral glucose use after drug ([6]; frontal cortex, from 69±1): 55±3 μmol.100 g−1.min-1
change in cerebral glucose use ([6]; occipital cortex): −31%
cerebral glucose use after drug ([6]; occipital cortex, from 60±1): 41±2 μmol.100 g−1.min−1

CC(C)(C)NC[C@H](O)COc1cccc2c1CCCC2=O [levobunolol HCl, reference compound]
AUC (ΔIOP×hours) [7]: 13.3±1.5 mmHg×Hours

CC(C)(C)NC[C@H](O)COc1nsnc1N1CCOCC1 [Timolol, reference compound]
AUC (ΔIOP×hours) [7]: 7.3±3.0 mmHg×Hours

CCCCCc1cc(O)c2c(c1)OC(C)(C)[C@@H]1CCC(C)=C[C@@H]21 [THC, Δ^9-tetrahydrocannabinol]
threshold for psychomimetic effects [8]: 10 to 15 mg
